{"source": "paper PMC10049495", "about": "“Antitumor Activity of PEGylated and TEGylated Phenothiazine Derivatives: Structure–Activity Relationship” (International Journal of Molecular Sciences, 2023)", "origin": "cited, not measured here", "data": [{"tested_on": "MCF-7", "details": "cited from earlier work", "units": {"IC50": "µM"}, "values": [{"smiles": "CC(=O)c1cc(C(=O)c2ccc3c(c2)Sc2ccccc2N3)c2cc(C)ccn12", "note": "[1-[(10H-Phenothiazin-3-yl)carbonyl]-3-acetyl-7-methylindolizine]", "IC50": "> 10"}, {"smiles": "CCN1c2ccc(-c3ccccc3)cc2Sc2cc(-c3nnc4ccccn34)ccc21", "note": "[3-([1,2,4]Triazolo[4,3-a]pyridin-3-yl)-10-ethyl-7-phenyl-10H-phenothiazine]", "IC50": 10.2}, {"smiles": "FC(F)(F)c1ccc2c(c1)N(Cc1cn(-c3ccc(Cl)cc3)nn1)c1ccccc1S2", "note": "[10-{[1-(4-Chlorophenyl)-1H-1,2,3-triazol-4-yl]methyl}-2-{trifluoromethyl}-10H-phenothiazine]", "IC50": 29.6}, {"smiles": "CCN1c2ccc(-c3ccc(OC)cc3)cc2Sc2cc(-c3nnc4ccccn34)ccc21", "note": "[3-([1,2,4]Triazolo[4,3-a]pyridin-3-yl)-10-ethyl-7-(4-methoxyphenyl)-10H-phenothiazine]", "IC50": 57.2}, {"smiles": "COc1cc(Cn2cc(CN3c4ccccc4Sc4ccccc43)nn2)cc(OC)c1OC", "note": "[10-{[1-(3,4,5-Trimethoxybenzyl)-1H-1,2,3-triazol-4-yl]methyl}-10H-phenothiazine]", "IC50": 0.8}, {"smiles": "COc1ccn2c(C(C)=O)cc(C(=O)c3ccc4c(c3)Sc3ccccc3N4)c2c1", "note": "[1-[(10H-Phenothiazin-3-yl)carbonyl]-3-acetyl-7-methoxyindolizine]", "IC50": "> 10"}, {"smiles": "CC(=O)c1cc(C(=O)c2ccc3c(c2)Sc2ccccc2N3)c2c(C)cc(C)cn12", "note": "[1-[(10H-Phenothiazin-3-yl)carbonyl]-3-acetyl-6,8-dimethylindolizine]", "IC50": "> 10"}, {"smiles": "CN1CCN(CCCN2c3ccccc3Sc3ccc(C(F)(F)F)cc32)CC1", "note": "[Trifluoperazine]", "IC50": 11.3}]}]}
